Assay [1] addresses T1, Thromboxane-A synthase (Homo sapiens, UniProt P24557).
T1 sequence (P24557 whole entry): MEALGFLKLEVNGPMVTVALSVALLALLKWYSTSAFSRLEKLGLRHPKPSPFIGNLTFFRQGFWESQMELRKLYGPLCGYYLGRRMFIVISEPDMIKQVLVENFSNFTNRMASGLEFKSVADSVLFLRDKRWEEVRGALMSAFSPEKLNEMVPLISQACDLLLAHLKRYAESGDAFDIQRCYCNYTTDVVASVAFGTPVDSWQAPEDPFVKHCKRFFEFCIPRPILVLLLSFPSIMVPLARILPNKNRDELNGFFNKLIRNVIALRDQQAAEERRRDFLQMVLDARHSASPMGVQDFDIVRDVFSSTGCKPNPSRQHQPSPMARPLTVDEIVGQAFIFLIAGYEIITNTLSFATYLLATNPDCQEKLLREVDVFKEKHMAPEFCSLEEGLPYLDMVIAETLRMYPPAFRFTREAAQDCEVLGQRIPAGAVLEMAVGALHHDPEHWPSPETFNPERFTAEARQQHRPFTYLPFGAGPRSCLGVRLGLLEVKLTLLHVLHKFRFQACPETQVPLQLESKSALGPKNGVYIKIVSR
Put plainly: Inhibition of human Thromboxane A2 synthase.

The target in assay [2] is T2, Thromboxane A2 receptor (Homo sapiens, UniProt P21731).
T2 sequence (P21731 whole entry): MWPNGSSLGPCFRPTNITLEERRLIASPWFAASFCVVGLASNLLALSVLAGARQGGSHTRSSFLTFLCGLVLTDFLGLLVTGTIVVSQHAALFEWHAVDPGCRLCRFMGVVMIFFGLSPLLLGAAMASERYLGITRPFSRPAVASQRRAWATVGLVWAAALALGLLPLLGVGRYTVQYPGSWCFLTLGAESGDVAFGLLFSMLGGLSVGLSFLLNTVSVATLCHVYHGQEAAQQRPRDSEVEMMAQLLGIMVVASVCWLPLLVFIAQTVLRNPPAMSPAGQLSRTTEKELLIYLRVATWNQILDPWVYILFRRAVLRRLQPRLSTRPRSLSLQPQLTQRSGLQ
Put plainly: Antagonistic potency against Thromboxane A2 receptor expressed as inhibition of U 46619-induced platelet aggregation in human platelet rich plasma. The assay is classed as functional. The conditions noted are these: read-out: pA2 (converted).

For assay [3], the system named is Canis familiaris. As to the kind of experiment: Compound was tested in vivo for blockade of U 46619-induced platelet aggregation in conscious dog at a oral dose of 1 mg/kg; Expressed as Concentration ratio. Type of assay: functional, Canis lupus familiaris.
In assay [4] the test system is Canis familiaris. As to the kind of experiment: Compound was tested in vivo for inhibition of serum TXB2 formation in conscious dog at a oral dose of 1 mg/kg. The assay is classed as functional. As to conditions: Canis lupus familiaris.

These results are taken from ChEMBL document CHEMBL1126340, “Dual-acting thromboxane receptor antagonist/synthase inhibitors: heterocyclic variations” (Bioorg Med Chem Lett, 1992).

As usually defined, the IC50 is the concentration needed to halve the response being measured. Read a low IC50 as greater potency. For orientation: inhibition in vivo means the drop in the measured response relative to a control, in per cent.

Turning to `CC1(C)OC[C@@H](C/C=C\CCC(=O)O)[C@@H](c2cccnc2)O1`, the half-inhibitory concentration (IC50) in assay [1] was determined as 120 nM.

`Cc1ccc(OC(C)(C)[C@H]2OC[C@@H](C/C=C\CCC(=O)O)[C@@H](c3cccnc3)O2)c([N+](=O)[O-])c1` came in with an IC50 in assay [1] of 19 nM. The Kb in assay [2] was 3.98 nM.

Take `CC1(C)OC[C@@H](C/C=C\CCC(=O)O)[C@@H](c2cncs2)O1`: the IC50 in assay [1] is 80 nM.

In assay [1], `CC1(C)OC[C@@H](C/C=C\CCC(=O)O)[C@@H](c2cnccn2)O1` showed a half-inhibitory concentration (IC50) of over 10000 nM.

For `Cc1ccc(OC(C)(C)[C@H]2OC[C@@H](C/C=C\CCC(=O)O)[C@@H](c3cncs3)O2)c([N+](=O)[O-])c1`, the IC50 in assay [1] came to 18 nM. In addition, the Activity in assay [3] was over 50. Besides, in assay [4], the inhibition in vivo at 1 mg/kg amounted to 60%. In addition, the Kb in assay [2] was 5.01 nM.

In assay [1], `Cn1cncc1[C@H]1OC(C)(C)OC[C@H]1C/C=C\CCC(=O)O` yielded a concentration for half-maximal inhibition (IC50) of 70 nM.

As for `CC1(C)OC[C@@H](C/C=C\CCC(=O)O)[C@@H](c2ccnnc2)O1`, the concentration for half-maximal inhibition (IC50) in assay [1] turned out to be 7400 nM.

In assay [1], `CCCCCCn1cncc1[C@H]1O[C@@H](C(C)(C)Oc2ccc(C)cc2[N+](=O)[O-])OC[C@H]1C/C=C\CCC(=O)O` yielded an IC50 of 490 nM. In assay [2], the Kb is 200 nM.

Compound `CC1(C)OC[C@@H](C/C=C\CCC(=O)O)[C@@H](c2cnco2)O1` displayed a concentration for half-maximal inhibition (IC50) in assay [1] of over 10000 nM.

As to `CCCCCCn1cncc1[C@H]1OC(C)(C)OC[C@H]1C/C=C\CCC(=O)O`, the IC50 in assay [1] came to 900 nM.

With `CC1(C)OC[C@@H](C/C=C\CCC(=O)O)[C@@H](c2cncnc2)O1`, the half-maximal inhibitory concentration (IC50) in assay [1] was over 10000 nM.

In turn, `CC1(C)OC[C@@H](C/C=C\CCC(=O)O)[C@@H](c2cccs2)O1` displayed a concentration for half-maximal inhibition (IC50) in assay [1] of 4100 nM. In other words, the single-digit micromolar range.

Turning to `Cc1ccc(OC(C)(C)[C@H]2OC[C@@H](C/C=C\CCC(=O)O)[C@@H](c3cncn3C)O2)c([N+](=O)[O-])c1`, it took 50 nM to reach half-maximal inhibition in assay [1] (IC50). Besides, the Kb in assay [2] was 3.98 nM.
